Test systems include 786-0; A498; A549; CAKI-1; COLO 205; K562; MDA-MB-231; NCI-H226; NCI-H460; NCI-H522; NCI/ADR-RES; OVCAR-3; OVCAR-5; OVCAR-8; SK-MEL-28; SNB-19; SR; TK-10; U-251; HL-60.
Common to all, as to test: inhibition of tumour cell growth, NCI panel, 48 h

The structures appear in SMILES notation.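 Method: 48-hour compound exposure of cells in 96-well plates, five concentrations, linear interpolation of endpoints. Abbreviation: GI50, concentration required for 50% inhibition of growth.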 Activity calls are given as the source filed them. Rule as the data show it: active = GI50 up to about 1.1 µM and inactive = higher. A value given as a limit tells only on which side of the number the result lay.

With `O=C(NNC(=S)Nc1ccccc1)c1cc(-c2ccccc2)nc2ccccc12`, the GI50 is 15.8 µM (inactive) with 786-0; 11.5 µM (inactive) in the assay with A498; 16.7 µM (inactive) with A549; 30.1 µM (inactive) with CAKI-1; 15.7 µM (inactive) in the assay with COLO 205; 17.4 µM (inactive) in the assay on K562. In addition, the GI50 in the assay with MDA-MB-231 was 20.1 µM (inactive); in the assay on NCI-H226, 23.6 µM (inactive); in the assay with NCI-H460 it was 20.7 µM (inactive); in the assay on NCI-H522 it was 18.1 µM (inactive); in the assay with NCI/ADR-RES, 17.4 µM (inactive); with OVCAR-3, 11.1 µM (inactive). For the same compound, the GI50 in the assay on OVCAR-5 is 18.1 µM (inactive); in the assay with OVCAR-8 it was 22.3 µM (inactive); in the assay on SK-MEL-28, 16.4 µM (inactive); in the assay with SNB-19 it was 22.8 µM (inactive); in the assay on SR, 13.6 µM (inactive); with TK-10, 22 µM (inactive). In addition, the GI50 in the assay on U-251 is 12.2 µM (inactive).

On to `CC(C)[S+]1C2=C(CC(C)(C)CC2=O)[N-]c2ccccc21` (centres undefined), for which the GI50 in the assay with 786-0, with A498, in the assay with A549, with CAKI-1, in the assay on COLO 205 and in the assay on K562 was > 100 µM (inactive) throughout. Moreover, the GI50 in the assay with MDA-MB-231, in the assay with NCI-H226, in the assay on NCI-H460, in the assay on NCI-H522, with NCI/ADR-RES and in the assay with OVCAR-3 was > 100 µM (inactive) in each case. For the same compound, the GI50 with OVCAR-5, in the assay on OVCAR-8, with SK-MEL-28, with SNB-19, in the assay with SR and in the assay with TK-10 was > 100 µM (inactive) throughout. Further, in the assay on U-251, the GI50 is > 100 µM (inactive).

Consider `O=C1CSC2=NCC3(NN12)c1ccccc1-c1ccccc13`, for which the GI50 in the assay with 786-0, in the assay on A549, with CAKI-1, in the assay with COLO 205, in the assay with HL-60 and in the assay with K562 was > 10 µM (inactive) throughout. Further, the GI50 with MDA-MB-231, in the assay with NCI-H226, in the assay with NCI-H460, with NCI-H522, in the assay with NCI/ADR-RES and with OVCAR-8 was > 10 µM (inactive) each time. In addition, the GI50 in the assay on SK-MEL-28, with SNB-19, with SR and with TK-10 was > 10 µM (inactive) each time.

Consider `COC(=O)C1(C)CCC(c2ccc(C)cc2)=C(CC(=O)O)C1` (centres undefined), for which the GI50 in the assay on 786-0, in the assay with A498, with A549, in the assay on COLO 205, in the assay with HL-60 and in the assay on K562 was > 100 µM (inactive) throughout. Further, the GI50 in the assay with MDA-MB-231, in the assay on NCI-H460, in the assay with NCI-H522, in the assay with NCI/ADR-RES, with OVCAR-3 and with OVCAR-5 was > 100 µM (inactive) in each case. The GI50 with OVCAR-8, in the assay with SK-MEL-28, in the assay on SNB-19, in the assay on SR, in the assay on TK-10 and in the assay with U-251 was > 100 µM (inactive) in each case.

For the compound `O=C(CCCl)NN=C1NCCCCN1`, the GI50 with 786-0, with A549, in the assay on COLO 205, in the assay with HL-60, in the assay on K562 and in the assay on MDA-MB-231 was > 100 µM (inactive) in each case. Besides, the GI50 with NCI-H226, with NCI-H460, in the assay with NCI-H522, with NCI/ADR-RES, in the assay with OVCAR-3 and in the assay with OVCAR-5 was > 100 µM (inactive) each time. Moreover, the GI50 in the assay on OVCAR-8, in the assay on SK-MEL-28, in the assay with SNB-19, in the assay on SR, in the assay with TK-10 and in the assay on U-251 was > 100 µM (inactive) throughout.

Regarding `COc1ccc(-c2nc(N)c(C#N)c3c2CCS(=O)(=O)c2ccc(C)cc2-3)cc1OC`, the GI50 is 29 µM (inactive) with 786-0; 23.3 µM (inactive) in the assay on A498; 26.4 µM (inactive) in the assay with A549; 27 µM (inactive) in the assay on CAKI-1; 27.8 µM (inactive) with COLO 205; 10.7 µM (inactive) in the assay with K562. Also, the GI50 in the assay with MDA-MB-231 was 28.6 µM (inactive); in the assay with NCI-H226, 77.1 µM (inactive); in the assay on NCI-H460, 28.2 µM (inactive); in the assay on NCI-H522, 8.87 µM (inactive); in the assay with NCI/ADR-RES it was 43.7 µM (inactive); in the assay on OVCAR-3 it was 39.6 µM (inactive). Besides, the GI50 in the assay with OVCAR-5 is 19.6 µM (inactive); in the assay with OVCAR-8 it was 74.3 µM (inactive); in the assay with SK-MEL-28, 55.2 µM (inactive); with SNB-19 it was 27.5 µM (inactive); with SR it was 0.252 µM (active); with TK-10 it was 56.1 µM (inactive). Moreover, in the assay on U-251, the GI50 was 40.6 µM (inactive).

In the case of `CC1=C(/C=C/C(C)=C/C=C/C(C)=C/C(=O)OC2CC(n3cc(F)c(=O)[nH]c3=O)OC2CO)C(C)(C)CCC1` (centres undefined), the GI50 in the assay with 786-0 was 0.52 µM (active); in the assay with A549, 0.153 µM (active); with CAKI-1, 0.383 µM (active); in the assay on COLO 205 it was 6.93 µM (inactive); in the assay on HL-60, 0.628 µM (active); in the assay with K562, 1.63 µM (inactive). Besides, the GI50 in the assay with MDA-MB-231 was 9.73 µM (inactive); in the assay with NCI-H226, 25.4 µM (inactive); in the assay on NCI-H460, 0.0429 µM (active); in the assay on NCI-H522, 1.17 µM (inactive); in the assay on NCI/ADR-RES, 2.05 µM (inactive); in the assay with OVCAR-3 it was 4.72 µM (inactive). Also, the GI50 in the assay on OVCAR-5 was 17.3 µM (inactive); in the assay on OVCAR-8 it was 0.526 µM (active); in the assay on SK-MEL-28 it was 7.73 µM (inactive); in the assay with SNB-19 it was 3.34 µM (inactive); with SR, 0.247 µM (active); in the assay with TK-10, 11.5 µM (inactive). Also, the GI50 in the assay with U-251 is 1.2 µM (inactive).

With `CCOC(=O)c1cn(-c2ccc(Cl)cc2)c(=O)n2c1nc1ccccc12`, the GI50 in the assay on 786-0, in the assay on A498, with A549, with CAKI-1, with COLO 205 and with K562 was > 100 µM (inactive) each time. For the same compound, the GI50 with MDA-MB-231, in the assay with NCI-H226, in the assay on NCI-H460, in the assay with NCI/ADR-RES, in the assay with OVCAR-3 and in the assay on OVCAR-5 was > 100 µM (inactive) in each case. The GI50 in the assay on OVCAR-8, with SK-MEL-28, in the assay with SNB-19, in the assay on SR and in the assay with U-251 was > 100 µM (inactive) in each case.

As for `Cc1ccc(O)c(-c2cc(-c3cccc(Cl)c3)c(C#N)c(N)n2)c1`, the GI50 is 20.4 µM (inactive) with 786-0; 18.9 µM (inactive) in the assay with A549; 29.4 µM (inactive) in the assay with CAKI-1; 15.7 µM (inactive) in the assay with COLO 205; 36.1 µM (inactive) with HL-60; 21.5 µM (inactive) in the assay on K562. Further, the GI50 in the assay with MDA-MB-231 was 20.7 µM (inactive); in the assay with NCI-H226, 18.7 µM (inactive); with NCI-H460, 19.6 µM (inactive); in the assay with NCI-H522 it was 12.5 µM (inactive); in the assay with NCI/ADR-RES it was 24.7 µM (inactive); in the assay with OVCAR-3 it was 38.5 µM (inactive). Further, the GI50 was 24 µM (inactive) in the assay on OVCAR-5; 31 µM (inactive) in the assay on OVCAR-8; 10.7 µM (inactive) in the assay on SR; 18.1 µM (inactive) in the assay with TK-10; 15.6 µM (inactive) in the assay with U-251.

With `CCc1n[nH]c(=O)n1N1C(=O)C2CC=CCC2C1=O` (centres undefined), the GI50 in the assay on 786-0, in the assay on A498, in the assay with A549, with CAKI-1, with COLO 205 and in the assay on K562 was > 100 µM (inactive) in each case. Further, the GI50 in the assay with MDA-MB-231, with NCI-H226, in the assay on NCI-H460, with NCI-H522, in the assay with NCI/ADR-RES and in the assay with OVCAR-3 was > 100 µM (inactive) each time. Also, the GI50 in the assay on OVCAR-5, in the assay with OVCAR-8, in the assay on SNB-19, with SR, with TK-10 and with U-251 was > 100 µM (inactive) throughout.

Consider `CN1C(=O)c2c(c3c4ccccc4n(C4OC(CO)C(O)C(O)C4O)c3c3[nH]c4ccccc4c23)C1=O` (centres undefined), for which the GI50 in the assay on 786-0 was 2.67 µM (inactive); with A498, 1.45 µM (inactive); in the assay on A549 it was 11.8 µM (inactive); in the assay on CAKI-1, 1.9 µM (inactive); in the assay on COLO 205, 0.944 µM (active); with K562, 0.736 µM (active). Moreover, the GI50 is 1.51 µM (inactive) in the assay on MDA-MB-231; 1.77 µM (inactive) in the assay with NCI-H226; 3.1 µM (inactive) with NCI-H460; 0.321 µM (active) with NCI-H522; 12.5 µM (inactive) with NCI/ADR-RES; 2.02 µM (inactive) in the assay on OVCAR-3. For the same compound, the GI50 was 3.22 µM (inactive) with OVCAR-5; 1.42 µM (inactive) in the assay on OVCAR-8; 2.14 µM (inactive) in the assay with SK-MEL-28; 0.849 µM (active) with SNB-19; 0.164 µM (active) in the assay on SR; 3.12 µM (inactive) with TK-10. Also, in the assay with U-251, the GI50 is 0.681 µM (active).
